Measurements published in ChEMBL document CHEMBL3507680, “University of Dundee, Gates Library screen for HepG2 cell viability”.

assay: Human HepG2 cell viability assay in 384 well format; assay type: toxicity, cell-based; design: dose 125 nL, time 70.5 hour; concentration not given beside the values; conditions: HepG2 cells, read-out: Inhibition

Row | SMILES | cytotoxicity at 70.5 h
1 | CCc1noc(CN2C[C@H]3CC[C@@H]2CN(C2Cc4ccccc4C2)C3)n1 | 4.55%
2 | c1cc(CN2CCCN(c3ccc4cc[nH]c4n3)CC2)ccn1 | -1.4%
3 | CC(C)OCCOCc1cccc(NC(=O)N2CCCC(O)C2)c1 (stereo not given) | -9.87%
4 | Cc1ccnc(C(=O)N2C[C@@H]3CN(S(C)(=O)=O)CCO[C@@H]3C2)c1 | 18%
5 | Cc1cc2c(c(=O)n1CCC(=O)O)C=CC(C)(C)O2 | -2.47%
6 | CN1[C@H](CO)C[C@H](CNCc2ccc(Cl)c(F)c2)[C@@H]1c1ccccc1F | -3.08%
7 | C[C@@H]1C(=O)NC[C@H]2CN(Cc3ccc4c(c3)OCO4)C[C@H]21 | -10.2%
8 | COc1ccc(CC(=O)Nc2c(C)nc(N3CCOCC3)nc2C)cc1 | 1.49%
9 | O=C(c1ccoc1)N1C[C@@H]2CN(c3ncccn3)C[C@@H]2C1 | -4.89%
10 | CCc1c(C)nc(C)nc1N1CCC(NCCSc2nnnn2C)CC1 | -6.49%
11 | CN(CCCc1cnn(C)c1)C(=O)Nc1cccc2[nH]ncc12 | -15.7%
12 | O=C1[C@@H]2CN(c3ncnc4[nH]ccc34)C[C@]2(C(=O)O)CN1CC1CC1 | -9.8%
13 | CCc1cc(C(=O)N2CCC(c3cc4ncccc4cn3)CC2)on1 | -0.772%
14 | CCOc1ccnc(NCc2nc(C)cc(=O)[nH]2)n1 | -6.71%
15 | Cc1cncc(C(=O)N2CCCC(O)(CN3CCCC3)C2)c1 (stereo not given) | -19.8%
16 | Cc1ccccc1CN1CCN(c2ncnc3c2NC(=O)CN3)CC1 | -8.36%
17 | CCC(C)(C)NC(=O)c1ccc(NC(=O)NCc2cc(C)no2)cc1 | -0.597%
18 | COCC1CC2(CCN(Cc3cccnc3)CC2)CN1c1ncccn1 (stereo not given) | -0.169%
19 | CCc1c(O)nc(SCC(=O)N(CC)CC)n(C(C)CC)c1=O (stereo not given) | -0.0297%
20 | CC(CN1CCOCC1)NC(=O)N(C)Cc1ccc(Cl)s1 (stereo not given) | -2.73%
21 | CC(c1nc(C(C)(C)C)no1)N1CCN(Cc2ccco2)CC1 (stereo not given) | -15%
22 | Cn1cnc2c1C(COCc1cccnc1)N(Cc1ccccc1)CC2 (stereo not given) | 2.08%

Row | SMILES | cytotoxicity at 70.5 h
23 | CCN(CC1CN(Cc2nccn2CC)CCO1)c1cccnn1 (stereo not given) | -9.34%
24 | Cc1cccc(C2(O)CCN(Cc3ccccc3N3CCCC3)CC2)c1 | 16.9%
25 | O=C(NC[C@]12COC[C@H]1CN(Cc1ccco1)C2)c1ccccc1 | -14.6%
26 | O=C(c1cnccn1)N1CCCC(C2=Nc3ccccc3S(=O)(=O)N2)C1 (stereo not given) | -6.36%
27 | CCN(C)C[C@@H]1CN(Cc2cnc3c(S(C)(=O)=O)cnn3c2)C[C@@H]1CO | 1.07%
28 | Cc1ncc2c(n1)CN(CC(=O)Nc1cc(C)on1)CC2 | -5.61%
29 | O=C1CC[C@H]2CN(Cc3cccc(F)c3)CC[C@H]2N1CCc1c[nH]cn1 | -2.79%
30 | Cn1cc(CN2CCCC(CCc3ccc(F)c(F)c3)C2)cn1 (stereo not given) | -2.93%
31 | COc1ccccc1CN1CCCC(n2cccn2)C1 (stereo not given) | -1.34%
32 | COc1cccc(C(=O)NS(=O)(=O)c2cccc(C#N)c2)c1OC | -13.8%
33 | O=S(=O)(C1CC1)N1CCC2(CCCN(c3ncccn3)C2)C1 (stereo not given) | 18%
34 | CC(=O)N[C@@H]1CN(c2nc(C(N)=O)cs2)C[C@H]1c1ccc(C)o1 | -15.3%
35 | Cc1nccn1[C@@H]1CC[C@@H](NC(=O)CCOc2ccccc2)[C@H]1O | 16.9%
36 | O=C(NCC1CC1)[C@@H]1C[C@@H]2CCN(Cc3ccoc3)C[C@@H]2O1 | 2.93%
37 | CCc1ccsc1C(=O)N1CCS(=O)(=O)CC1 | -8.8%
38 | CC1CN(C)CCN1C(=O)c1ccn(-c2ccc(F)cc2)n1 (stereo not given) | -12.3%
39 | Cc1ccc(C2CN(CCCS(=O)(=O)C(C)C)CCO2)c(C)c1 (stereo not given) | -2.16%
40 | CC(=O)N1CCC2(CCN(Cc3ccc(Cl)c(C(F)(F)F)c3)CC2)C1 | -11.6%
41 | CC(C)n1cc(CN(Cc2ccsc2)CC2CCCO2)cn1 (stereo not given) | -1.43%
42 | CCn1cc(-c2c(C)c(C3CCOC(C)(C)C3)nc(N)c2C#N)cn1 (stereo not given) | 9.87%
43 | Cc1cc(C(=O)O)cc(S(=O)(=O)Nc2ccc3c(c2)OCCO3)c1C | -3.8%
44 | Cn1ccnc(Sc2cccc(C#N)c2)c1=O | -4.29%

Row | SMILES | cytotoxicity at 70.5 h
45 | CC(=O)N1C[C@@H](F)[C@@H](OCc2nc3ccc(C#N)cc3[nH]2)C1 | -1.65%
46 | CCN1CC(COC(=O)c2ccc(Br)cc2F)CC1=O (stereo not given) | -6.68%
47 | CN(C)C(=O)N1C[C@H](Oc2ccccn2)[C@H]2OCCC[C@H]21 | -7.83%
48 | Cc1ncoc1C(=O)N1CCCC(C(=O)c2cccc(OC(C)C)c2)C1 (stereo not given) | -8.43%
49 | CC(C)Cn1ccnc1CNC(=O)N1CCCC1CN1CCOCC1 (stereo not given) | -4.49%
50 | Cc1cnn(C2CN(CC(=O)NCC(C)C)C2)c1 | -13.6%
51 | CCc1ncc(C(=O)N(CC)CCOC)cn1 | -1.19%
52 | O=C(CCc1ccncc1)Nc1ccc(OCC2CCOCC2)cc1 | -13.6%
53 | Cc1n[nH]c(C)c1-c1nccnc1CC1CCN(C(C)C)CC1 | 13.4%
54 | COc1ccc2c(c1)CCCN(CC(=O)NCC1CCCO1)C2 (stereo not given) | -5.84%
55 | c1ccc(CN2CCCC2)c(CNc2cncc3nnnn23)c1 | -7.51%
56 | COCCN1CC(C(=O)N(CCN(C)C)Cc2ccc(C)s2)CC1=O (stereo not given) | -4.05%
57 | O=C(NC1CC(=O)N(C2Cc3ccccc3C2)C1)c1csnn1 (stereo not given) | -1.65%
58 | CCN(Cc1ccncc1)C(=O)C1COc2c(cccc2OC)C1 (stereo not given) | 6.05%
59 | Cc1noc(C(C)N(C)Cc2ccco2)n1 (stereo not given) | -6.09%
60 | CCc1nc(C(=O)N2CCN(C(=O)CCc3ccccc3)CC2)c[nH]1 | -6.61%
61 | CC(C)[C@@H]1CN(C(=O)C2(c3ccccc3)CCN(C)CC2)C[C@H]1C(=O)O | -5.2%
62 | Cc1nc(Nc2cnccn2)cc(C2CN(C(C)C)C2)n1 | -6.87%
63 | O=C(NCC(=O)N1CCCc2ccccc21)c1c(O)cc(F)cc1F | 0.334%
64 | CN(CC1CN(Cc2cn3ccsc3n2)CCO1)c1cccnn1 (stereo not given) | -2.29%
65 | Cc1sc(-c2ccco2)nc1C(=O)NCC1CCOC1 (stereo not given) | 1.39%
66 | CC(C)(C)n1cc(C2=CCN(CCc3ccccc3)CC2)cn1 | -3.25%

Row | SMILES | cytotoxicity at 70.5 h
67 | COc1cc(N2C[C@@H](C)[C@](O)(C3CC3)C2)ncn1 | 5.18%
68 | COCCC1(CO)CCCN(Cc2ccncc2)C1 (stereo not given) | -3.98%
69 | O=C(Cc1ccc(Cl)s1)Nc1ccc2c(c1)C(=O)NC2=O | -1.77%
70 | CN(Cc1ccon1)C(=O)C1CC(=O)N(Cc2ccncc2)C1 (stereo not given) | -6.33%
71 | O=C(CNc1cc(-n2cnnn2)ccc1F)Nc1ccccc1Cl | -114%
72 | CNC(=O)NCC1CCC2(CCN(C(=O)c3ccccn3)CC2)CO1 (stereo not given) | 1.5%
73 | Cc1n[nH]c(C)c1CCC(=O)N[C@@H]1CCC[C@@H](Oc2ccccc2)[C@@H]1O | 21.6%
74 | CC(C)C(=O)N1CC[C@@H]2CN(Cc3ccncc3)S(=O)(=O)[C@@H]2CC1 | -3.99%
75 | COCCNC(=O)[C@H]1CN(Cc2csc(C)n2)C[C@H]2OCC[C@@H]12 | -3.29%
76 | COc1cccc(CN2CC[C@H](c3nnc(C)o3)C2)c1 | 2.22%
77 | O=C(CCCc1nc(-c2ccccc2)no1)N1CCN(CCO)CC1 | 17.6%
78 | CCCc1nnc(N(C)CC2CCCN(CC)C2)o1 (stereo not given) | 15.4%
79 | CN(Cc1ccoc1)C(=O)C1CC(=O)N(Cc2ccncc2)C1 (stereo not given) | -8.62%
80 | Cc1cc(C)c(CNC(=O)N2CCN(c3ccncc3)CC2)c(=O)[nH]1 | -9.77%
81 | c1cnn(CC2CN(Cc3csc(-c4ccsc4)n3)CCO2)c1 (stereo not given) | -6.82%
82 | CCn1cnnc1CNC(=O)N(C)Cc1c(F)cccc1Cl | -8.68%
83 | Cn1cncc1CN1CCC(O)(Cn2nc(-c3cccs3)oc2=O)CC1 | -2.36%
84 | OC1CCN(Cc2ccc(CNc3ncc(Cl)cc3F)cc2)CC1 | 14.7%
85 | Cc1nn(C)c2c(N3CCN(C(=O)C4CCCO4)CC3)ncnc12 (stereo not given) | 1.72%
86 | O=C(c1cccs1)N1CC[C@H]2[C@@H]1CCC(=O)N2c1cccnc1 | -11.5%
87 | CC(O)CN1CCC(CNCc2cccc(OC(C)C)c2)CC1 (stereo not given) | 47%
88 | O=C1COc2cc(S(=O)(=O)NCCC3=CCCCC3)c(Cl)cc2N1 | 14.7%

Row | SMILES | cytotoxicity at 70.5 h
89 | CC(c1ccc(S(C)(=O)=O)cc1)N(C)C(=O)c1ccccc1I (stereo not given) | -4.13%
90 | C=C(C)COc1ccccc1C(=O)NCCc1cc(O)nc(C)n1 | -11.9%
91 | O=S(=O)(C1CC1)N1CCO[C@H]2[C@@H](Oc3ncccc3F)CC[C@@H]21 | -8.02%
92 | CC(C)N1CCN(C(=O)c2[nH]nnc2Nc2ccccc2F)CC1 | 16.4%
93 | Cn1ncc2c1C(COCC1CC1)CN(Cc1ccco1)C2 (stereo not given) | 4.98%
94 | O=C(O)c1cccc(C2CCCN(S(=O)(=O)C3CC3)C2)c1 (stereo not given) | -10.8%
95 | Cc1ccc(OCC(=O)Nc2cc(C(=O)O)cc(S(C)(=O)=O)c2)cc1C | 0.676%
96 | CCOc1cc(C(=O)N2CCN(CC)CC2)cc2occc12 | -3.29%
97 | CC(C)(NC(=O)c1ccc(-c2ccccc2F)s1)C(N)=O | 12.6%
98 | CN(C)CCn1c(=O)oc2ccc(NC(=O)CC(C)(C)C)cc21 | -6.79%
99 | O=C(c1cc(Cl)ccc1OC1CCN(C2CCCC2)CC1)N1CC(O)C1 | 11.8%
100 | CSCC(CCO)NC(=O)c1cccc(C)c1Cl (stereo not given) | -13.9%
101 | Cc1cnn(C2CCCN(C(=O)c3sccc3C#N)C2)c1 (stereo not given) | 28.7%
102 | O=C(CCc1cscn1)NS(=O)(=O)c1ccc2c(c1)CCC2 | 8.97%
103 | COCCC(=O)NCC1COc2cc(OC)ccc2C1 (stereo not given) | -12.7%
104 | Cc1ccc(CNCC(C)Oc2ccccn2)cc1 (stereo not given) | -33.7%
105 | CN(C)CC(=O)N1CCC2(CC1)COc1ccccc1S(=O)(=O)N(C)C2 | 0.316%
106 | CC(C)c1nc(C2CCCN(c3nccc(C(F)(F)F)n3)C2)no1 (stereo not given) | -2.52%
107 | CCc1nc2n(n1)CCCC2Nc1nc(C(C)C)ns1 (stereo not given) | -9.57%
108 | CCc1n[nH]c(C2CN(C(=O)c3ccc(NC4CC4)nc3)CCO2)n1 (stereo not given) | -7.92%
109 | O=C1CNc2ncnc(N3CCN(Cc4ccccc4F)CC3)c2N1 | -7.69%
110 | Cn1ncc2c(N3CCCN4CCC[C@H]4C3)nc(C(C)(C)C)nc21 | -7.18%
